Data as given in patent publication US11254986B2, “Gene signature for immune therapies in cancer” (ALMAC DIAGNOSTICS LIMITED, priority 2015, dated 2022).

Columns and labels:
[1] = test system: CXCL10 and CCL5 chemokine production in MDA-MB-436 EV cells; test: Chemokine expression after small molecule inhibitors of ATM, ATR and DNAPK; assay type: cell-based; settings: DDRD positive cells (MDA-MB-436 EV), compared to the DMSO control, FIG. 16
Experimental: (§1) The product of Reverse Transcription was diluted 1:10 in Nuclease Free Water (NFW). Each 10 μl PCR reaction, consisted of 0.5 μl of 10 μM Forward primer, 0.5 μl of 10 μM Reverse primer, 5 μl of 2× LightCycler® 480 SYBR Green I Master mix (Roche), 1.5 μl NFW and 2.5 μl diluted Reverse Transcription product. These 10 μl reactions were pipetted into wells of a LightCycler® 480 multiwell 96 plate (Roche), the plate was then sealed using clear adhesive film (Roche). The plate was placed into the LightCycler® 480 (Roche) and run with the following protocol. (95° C. for 10 mins, 45 cycles of; 95° C. for 15 secs, 55° C. for 30 secs and 72° C. for 30 secs, finishing with a melt curve for confirmation of primer specificity. All qPCR data was analysed using the LightCycler® 480 software provided by Roche. For analysis, the Cp value from a technical duplicate was calculated and the relative amount of a gene was calculated Cp value to an in-run standard curve. Each mean value was then normalised to the mean concentration of the housekeeping gene PUM1 within the corresponding sample, by dividing the concentration of the target gene by the concentration of the house keeping gene. Relative expression refers to the gene expression levels that have been normalised to the housekeeping gene and made relative to the associated control samples. From these normalized values, the fold changes for each gene were calculated and the average of three individual fold changes were derived from three independent experimental triplicates. The unpaired, two-tailed students T-test available on GraphPad Prism 5.0 software was used to detect statistical significance.
(§2) For analysis of effects of ATM, ATR and DNAPK on cytokine expression, cells were seeded in six well plates at ˜60% confluency. Following incubation overnight, small molecule inhibitors of ATM (Ku60019, Selleck Chem) at a dose of 1 μm, ATR (ETP46464, Selleck Chem) at a dose of 5 μm and DNAPK (Nu7441, Selleck Chem) at a dose of 5 μm were added. At 24 hours, RNA and protein samples were obtained for analysis. For analysis of the effects of DNA damaging agents and paclitaxel on cytokine expression, cells were seeded in six well plates at ˜60% confluency. Following incubation overnight, IC50 doses of Cisplatin and Paclitaxel (obtained from fresh Pharmacy stock) and Hydroxyurea (Sigma Aldrich) were added for 24 hours to 48 hours. At the appropriate timepoint, RNA and protein samples were obtained for analysis.

[2] = test system: HCC1937 parental and HCC1937-BR cells; settings: HCC1937 BRCA1 mutant cell-line relative to BRCA1 corrected cell-line (HCC1937-BR); FIG. 8C
Experimental: The cell-lines were routinely maintained in RPMI-1640 medium supplemented with 50 U penicillin/ml, 50 μg streptomycin/ml, 2 mM glutamine, 1 mM Sodium Pyruvate and 20% (v/v) fetal bovine serum (FBS). The HCC1937-EV and HCC937-BR cell-lines also required 0.2 ml/mg geneticin. Cell-lines were cultured at 37° C. with a humidified atmosphere of 5% CO2.
Twenty-four hours following seeding the cells were exposed to medium containing increasing doses of drug. Cell medium was replenished every 4-5 days. After 12-14 days the cells were fixed in methanol, stained with crystal violet and counted. The percentage survival of control for a given dose was calculated as the plating efficiencies for that dose divided by the plating efficiencies of vehicle-treated cells. Survival curves and half maximal inhibitory concentration (IC50) values were calculated using GraphPad Prism.

[3] = test system: HeLa, HCC1937 EV and MDA-MB-436 EV cells; test: Cell cycle analysis (propidium iodide, flow cytometry); assay type: cell-based; settings: anti-mitotic agent treatment; FIG. 15
Experimental: as §2
Cells were trypsinised and fixed in 70% ethanol, incubated with RNase A and propidium iodide (P1) and analysed using a BD FACSCalibur™ (BD Biosciences, CA, USA). Data was analysed using Flow Jo software to perform cell cycle analysis.

[4] = test system: CXCL10 and CCL5 expression; test: qRT-PCR of chemokine expression after DNA damaging agents, paclitaxel or nocodazole; assay type: cell-based
Experimental: Reverse transcription was performed using the First Strand cDNA synthesis kit (Roche). 500 ng of RNA was reverse transcribed according to manufacturer's instructions. Exon-spanning qPCR primers were designed using Roche Universal Probe Library Assay Design Centre and were used at a concentration of 0.5 μM. The following primer sequences were used:
To preform absolute quantification from qPCR, we used a standard curve method. The efficiency of each primer set was derived from the standard curve using the following equation: E=10^(−1/slope)
as §1
For analysis of effects of ATM, ATR and DNAPK on cytokine expression, cells were seeded in six well plates at ˜60% confluency. Following incubation overnight, small molecule inhibitors of ATM (Ku60019, Selleck Chem) at a dose of 1 μm, ATR (ETP46464, Selleck Chem) at a dose of 5 μm and DNAPK (Nu7441, Selleck Chem) at a dose of 5 μm were added. At 24 hours, RNA and protein samples were obtained for analysis. For analysis of the effects of DNA damaging agents and paclitaxel on cytokine expression, cells were seeded in six well plates at ˜60% confluency. […]

[5] = test system: cytosolic DNA in HeLa cells; test: PicoGreen fluorescent staining of double-stranded DNA, confocal microscopy; assay type: cell-based; settings: IC50 doses, FIG. 19C
Text: We probed cytosolic fractions of DDRD positive cells MDA-436-EV and +BRCA1, and HCC1937-EV and +BRCA1 cells for the presence of Histone H3, and found Histone H3 protein expression was increased in the repair deficient lines (EV) (FIG. 19A, top panel of blots). […] PicoGreen fluorescent staining was used to detect double-stranded DNA (ds-DNA). […] This increase in cytosolic DNA was however not observed in response to treatment with Paclitaxel (HeLa+Paclitaxel IC50) (FIG. 19C).

PDL1 = PDL1 expression in RKO cells after Interferon-γ, qPCR and western blot; assay type: cell-based; settings: for PDL1 gene expression levels (fold change): RKO Par, RKO Fanc C and RKO Fanc G cells, FIG. 27B
Experimental: as §1, with “Relative expression refers to the gene expression levels that have been normalised to the housekeeping gene and made relative to the associated control samples.” left out, “The unpaired, two-tailed students T-test available on GraphPad Prism 5.0 software was used to detect statistical significance.” left out
Adherent cells formed whole cell lysates suspended in RIPA buffer containing phosphatase and protease inhibitors (Roche Inhibitor cocktails, Germany). […] Protein was quantified using the BCA Assay (Pierce, Rockford, Ill., USA) according to manufacturer's instructions using a plate reader. […] Results were then visualized and recorded using Luminata Crescendo Western HRP substrate (Millipore, UK) and an alpha imager.
The cytotoxic effects of lymphocytes on cancer cells was measured using LIVE/DEAD® Cell-Mediated Cytotoxicity Kit (Life technologies, Paisley, UK.) RKO parental and Fanc G cells were trypsinised, counted and stained with green-fluorescent membrane stain DiOC18 in PBS at a concentration of 2 μl of stain per ml. […]

[6] = test system: RKO Parental and RKO FANCG-/- cells; test: Lymphocyte (PBMC) mediated cytotoxicity, LIVE/DEAD Cell-Mediated Cytotoxicity Kit; assay type: cell-based; settings: pre-treatment of cancer cells, PBMC ratio 5:1, p-value<0.05, FIG. 27A
Experimental: The cytotoxic effects of lymphocytes on cancer cells was measured using LIVE/DEAD® Cell-Mediated Cytotoxicity Kit (Life technologies, Paisley, UK.) RKO parental and Fanc G cells were trypsinised, counted and stained with green-fluorescent membrane stain DiOC18 in PBS at a concentration of 2 μl of stain per ml. Cells were incubated with the stain for 20 minutes at 37° C. before being seeded into 12 well plates at a density of 1×10^5 cells per well and left to adhere overnight. The next day PMBCs were counted and added to RKO cell cultures at the ratios indicated. For 1:1 ratio 1×10^5 PBMCs were added, for 5:1 ratio 5×10^5 PBMCs were added. The co-cultures were incubated for 4 hours before cells were collected for analysis by flow cytometry. A BD FACSCalibur™ (BD Biosciences, CA, USA) was used for the analysis of samples and Flow Jo software was used for data analysis. Cells were treated with interferon-γ at a concentration of 20 ng/ml for 16 hours.

Molecule: CC(C)(C#N)c1ccc(N2C(=O)OCc3cnc4ccc(-c5cnc6ccccc6c5)cc4c32)cc1 [ETP-46464]
- CXCL10 and CCL5 chemokine production / expression levels [1]: No significant decreases

Molecule: O=C(c1cc(Cc2n[nH]c(=O)c3ccccc23)ccc1F)N1CCCNCC1 [KU0058948]
- sensitivity to PARP-1 inhibitor (clonogenic survival) [2]: more sensitive

Molecule: C[C@@H]1CN(CC(=O)Nc2ccc3c(c2)Cc2cccc(-c4cc(=O)cc(N5CCOCC5)o4)c2S3)C[C@H](C)O1 [Ku60019]
- CXCL10 and CCL5 chemokine production / expression levels [1]: No significant decreases

Molecule: COC(=O)Nc1nc2ccc(C(=O)c3cccs3)cc2[nH]1 [Nocodazole]
- cell cycle arrest [3]: arrest in the M phase
- mRNA expression of CXCL10 ([4]; anti-mitotic agent treatment, FIG. 15A): reduced mRNA expression of CXCL10

Molecule: O=c1cc(N2CCOCC2)oc2c(-c3cccc4c3sc3ccccc34)cccc12 [Nu7440]
- CXCL10 and CCL5 chemokine production / expression levels [1]: No significant decreases
- CXCL10 and CCL5 chemokine production / expression levels ([1]; listed as DNAPKi): significantly increased

Molecule: CC(=O)O[C@H]1C(=O)[C@@]2(C)[C@H]([C@H](OC(=O)c3ccccc3)[C@]3(O)C[C@H](OC(=O)[C@H](O)[C@@H](NC(=O)c4ccccc4)c4ccccc4)C(C)=C1C3(C)C)[C@]1(OC(C)=O)CO[C@@H]1C[C@@H]2O [Paclitaxel]
- cytosolic DNA (PicoGreen, confocal microscopy) [5]: not observed
- CXCL10 and CCL5 relative expression ([4]; HeLa, HCC1937 EV and MDA-MB-436 EV cells, IC-50 doses, compared to DMSO control, FIG. 14): not significantly increased

Molecule: Interferon-γ: Interferon-γ, cells treated at 20 ng/ml for 16 hours
- PDL1 protein level (western blotting) (PDL1; RKO Par and RKO Fanc G cells, pre-treatment, FIG. 27C): enhanced PDL1 levels
- PDL1 gene expression levels (fold change) (PDL1): significantly increases PDL1 gene expression levels
- PDL1 gene expression levels (fold change) (PDL1; listed as IFN-γ): drives PDL-1 expression in DDRD+

B1: Interferon-γ: Interferon-γ, cells treated at 20 ng/ml for 16 hours (protein, UniProt P01579 24-161, looked up)
Interferon gamma: QDPYVKEAENLKKYFNAGHSDVADNGTLFLGILKNWKEESDRKIMQSQIVSFYFKLFKNFKDDQSIQKSVETIKEDMNVKFFNSNKKKRDDFEKLTNYSVTDLNVQRKAIHELIQVMAELSPAAKTGKRKRSQMLFRG
- lymphocyte mediated cytotoxicity, differential between RKO FANCG-/- and RKO Parental cells [6]: extends the differential cytotoxicity
- lymphocyte mediated cytotoxicity, differential between RKO FANCG-/- and RKO Parental cells ([6]; listed as IFN-γ): protects against PBMC mediated cytotoxicity
